The values that follow come from patent publication US12275731B2, “Azaindole inhibitors of wild-type and mutant forms of LRRK2” (DANA-FARBER CANCER INSTITUTE, INC., priority 2018, dated 2025).

A value given as a limit tells only on which side of the number the result lay.

One assay has as its target LRRK2(G2019S) (Homo sapiens, UniProt Q5S007, G2019S). In words: LRRK2 G2019S kinase inhibition assay (ADP-Glo). In kind it is biochemical. Also noted: purchased SignalChem L10-12GG. The conditions noted are these: Table 2, class symbols; read-out: Enzyme activity against LRRK2 G2019S (IC50). As to the method:
IC50 experiments were performed for inventive compounds. An exemplary kit to perform this assay includes the Adapta™ Screening Protocol and Assay Conditions by Invitrogen™ (Fisher Scientific™, Catalog No. PV5099).
All LRRK2 kinase inhibition assays were conducted by using Promega ADP-Glo™ Kinase assay systems (Catalog number; V4475). Inhibitors were tested with 12 concentrations over a 5-fold serial dilution series (50 μM, 10 μM, 2 μM, 400 nM, 80 nM, 16 nM, 3.2 nM, […]) and PF06447475 as positive control. For the LRRK2 wild type (WT) enzyme assay, each inhibitor was mixed with 0.2 μg/μL of substrate (LRRKtide, SignalChem, Richmond, BC, Canada), […] (Invitrogen™, Carlsbad, CA), 24 ng of LRRK2 WT enzyme (Thermo Fisher Scientific, PR8604B) in 384-well plate. For LRRK G2019S, each compound was mixed with 0.2 μg/μL of substrate, […], 16 ng of LRRK2 G2019S enzyme (SignalChem, L10-12GG). All samples were diluted with kinase reaction buffer (40 mmol/L TrisHCl, 10 mmol/L MgCl2, and 0.1 μg/μL BSA (bovine serum albumin)). After 2 hours at 25° C., ADP-Glo™ (Promega, Madison, WI) reagent was added and the samples were incubated at rt for 40 min. Finally, Kinase Detection Reagent was added and the resulting mixtures were allowed to react at rt for 10 min. Luminescence signals were detected using Synergy™ Neo2 microplate reader (Bio-Tek). Compound inhibition curve was fitted using Graphpad Prism 8.0 software.

Another assay has as its system FLT3(ITD, F691L). The assay is described as follows: KinomeScan profiling. In kind it is binding. The conditions noted are these: 1 μM. Summed up:
(§1)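 Compounds were screened at 1 μM in DMSO across a 468-kinase KinomeScan panel. Binding was expressed as % control, scaled between a positive control (0%) and DMSO (100%) using luminescence signal. A value under 35% counted as active.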

For another assay, the system named is FLT3(ITD). The assay is described as follows: KinomeScan profiling. The note with it: 1 μM. It is filed as binding. Summed up:
as §1

Chain of LRRK2(G2019S) (Q5S007 970-2527 G2019S limits assumed): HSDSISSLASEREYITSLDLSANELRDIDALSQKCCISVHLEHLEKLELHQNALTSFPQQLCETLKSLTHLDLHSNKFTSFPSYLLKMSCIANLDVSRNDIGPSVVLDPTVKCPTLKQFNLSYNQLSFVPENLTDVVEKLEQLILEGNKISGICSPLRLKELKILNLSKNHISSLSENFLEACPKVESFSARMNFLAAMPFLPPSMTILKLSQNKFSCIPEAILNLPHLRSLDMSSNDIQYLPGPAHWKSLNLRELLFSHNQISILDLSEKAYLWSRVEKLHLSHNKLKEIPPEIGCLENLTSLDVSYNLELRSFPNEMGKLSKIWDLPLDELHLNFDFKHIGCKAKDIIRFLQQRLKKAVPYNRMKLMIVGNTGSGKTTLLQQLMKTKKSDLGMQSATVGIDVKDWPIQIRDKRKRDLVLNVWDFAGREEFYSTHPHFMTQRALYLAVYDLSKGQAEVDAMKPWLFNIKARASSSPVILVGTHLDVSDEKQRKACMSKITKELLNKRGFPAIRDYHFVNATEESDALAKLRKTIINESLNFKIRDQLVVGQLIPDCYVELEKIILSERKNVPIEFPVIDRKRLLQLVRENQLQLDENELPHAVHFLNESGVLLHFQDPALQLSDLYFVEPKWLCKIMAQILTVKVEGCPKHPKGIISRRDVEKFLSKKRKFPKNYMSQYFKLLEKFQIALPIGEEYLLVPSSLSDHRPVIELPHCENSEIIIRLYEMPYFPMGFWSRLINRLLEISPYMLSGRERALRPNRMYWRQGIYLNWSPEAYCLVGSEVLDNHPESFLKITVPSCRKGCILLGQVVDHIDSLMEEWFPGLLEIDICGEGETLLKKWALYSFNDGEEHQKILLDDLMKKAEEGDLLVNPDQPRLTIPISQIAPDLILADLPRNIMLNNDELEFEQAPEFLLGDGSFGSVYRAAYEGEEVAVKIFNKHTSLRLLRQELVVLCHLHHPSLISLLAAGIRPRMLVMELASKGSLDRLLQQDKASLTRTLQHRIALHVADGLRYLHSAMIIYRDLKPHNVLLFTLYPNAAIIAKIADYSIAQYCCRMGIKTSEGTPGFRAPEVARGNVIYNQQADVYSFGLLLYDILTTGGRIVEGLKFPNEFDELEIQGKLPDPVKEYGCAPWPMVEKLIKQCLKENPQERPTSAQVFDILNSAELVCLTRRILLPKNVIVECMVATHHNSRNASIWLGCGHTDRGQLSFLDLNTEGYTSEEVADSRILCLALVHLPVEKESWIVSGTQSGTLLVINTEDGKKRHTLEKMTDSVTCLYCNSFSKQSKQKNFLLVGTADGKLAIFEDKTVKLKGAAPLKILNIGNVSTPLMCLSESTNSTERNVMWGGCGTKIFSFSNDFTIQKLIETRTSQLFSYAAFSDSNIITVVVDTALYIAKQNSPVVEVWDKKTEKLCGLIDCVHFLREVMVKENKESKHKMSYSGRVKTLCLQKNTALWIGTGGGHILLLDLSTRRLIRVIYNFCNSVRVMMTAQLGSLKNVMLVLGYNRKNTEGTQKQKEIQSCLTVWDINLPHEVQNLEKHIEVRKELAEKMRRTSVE

A word on the IC50: it is the concentration at which inhibition is half-maximal. As to `CNc1c(-c2ccc(C(=O)N3CCC(N4CCOCC4)CC3)cc2)cnc2[nH]cc(Cl)c12` [Compound 96, (4-(3-chloro-4-(methylamino)-1H-pyrrolo[2,3-b]pyridin-5-yl)phenyl)(4-morpholinopiperidin-1-yl)methanone], the IC50 on LRRK2(G2019S) is below 10 nM. The “% control” value is reported as 0% with FLT3(ITD, F691L) and 8.1% with FLT3(ITD).
Regarding `O=C(c1ccc(-c2cnc3[nH]cc(Cl)c3c2NC2CCCC2)cc1)N1CCC(N2CCOCC2)CC1` [Compound 101, (4-(3-chloro-4-(cyclopentylamino)-1H-pyrrolo[2,3-b]pyridin-5-yl)phenyl)(4-morpholinopiperidin-1-yl)methanone], the “% control” value in the assay on FLT3(ITD, F691L) was found to be 49%; in the assay on FLT3(ITD), 41%.
For the molecule `CNc1c(-c2cnn([C@H]3CCN(C(C)=O)C[C@@H]3F)c2)cnc2[nH]cc(Cl)c12` [Compound 77, 1-((3S,4S)-4-(4-(3-chloro-4-(methylamino)-1H-pyrrolo[2,3-b]pyridin-5-yl)-1H-pyrazol-1-yl)-3-fluoropiperidin-1-yl)ethan-1-one], on LRRK2(G2019S), the IC50 lay in the range of 10 to 100 nM.
